Patent publication US20090099158A1, “TETRAHYDROISOQUINOLINE COMPOUNDS AS MODULATORS OF THE HISTAMINE H3 RECEPTOR” (priority 2007, published 2009)

These compounds were tested against T1, cloned human H3 receptors (Homo sapiens, UniProt Q9Y5N1) (assay: H3 Receptor Binding (Human)). Details: cloned human H3 receptors stably expressed in SK-N-MC cells; average of the results obtained.
T1 construct: expressed in transfected cells; host or cells: SK-N-MC cells
Procedure: Binding of compounds to the cloned human H3 receptors, stably expressed in SK-N-MC cells, was performed as described by Barbier, A. J. et al. (Br. J. Pharmacol. 2004, 143(5), 649-661). Data for compounds tested in this assay are presented in Table 1 as an average of the results obtained.

T1 sequence (Q9Y5N1 whole entry): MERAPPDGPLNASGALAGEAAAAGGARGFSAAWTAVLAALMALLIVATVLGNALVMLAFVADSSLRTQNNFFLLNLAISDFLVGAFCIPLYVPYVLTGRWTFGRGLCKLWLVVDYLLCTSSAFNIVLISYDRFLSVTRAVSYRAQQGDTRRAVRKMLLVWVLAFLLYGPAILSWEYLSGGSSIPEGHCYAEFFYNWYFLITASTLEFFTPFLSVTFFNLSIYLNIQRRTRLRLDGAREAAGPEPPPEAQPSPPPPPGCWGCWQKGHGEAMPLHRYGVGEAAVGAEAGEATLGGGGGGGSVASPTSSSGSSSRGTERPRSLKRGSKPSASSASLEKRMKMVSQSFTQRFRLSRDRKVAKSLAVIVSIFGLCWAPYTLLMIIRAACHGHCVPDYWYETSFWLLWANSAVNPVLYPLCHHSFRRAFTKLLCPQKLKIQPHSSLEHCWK

In order of rising Ki:
1. CCCN1CCc2cc(C(=O)N3CCN4CCCCC4C3)ccc2C1 (stereo not drawn) [Example 181, (Octahydro-pyrido[1,2-a]pyrazin-2-yl)-(2-propyl-1,2,3,4-tetrahydro-isoquinolin-6-yl)-methanone]  2 nM
2. CC(C)N1CCCN(C(=O)c2ccc3c(c2)CCN(C(=O)OC(C)(C)C)C3)CC1 [Example 1, 6-(4-Isopropyl-[1,4]diazepane-1-carbonyl)-3,4-dihydro-1H-isoquinoline-2-carboxylic acid tert-butyl ester]  8 nM
3. O=C(c1cccc(Cl)c1)N1CCc2cc(C(=O)N3CCC[C@H]3CN3CCCC3)ccc2C1 [Example 51, (S)-(3-Chloro-phenyl)-[6-(2-pyrrolidin-1-ylmethyl-pyrrolidine-1-carbonyl)-3,4-dihydro-1H-isoquinolin-2-yl]-methanone]  14 nM
4. N#Cc1cccc(C(=O)N2CCc3cc(C(=O)N4CCC[C@H]4CN4CCCC4)ccc3C2)c1 [Example 52, (S)-3-[6-(2-Pyrrolidin-1-ylmethyl-pyrrolidine-1-carbonyl)-3,4-dihydro-1H-isoquinoline-2-carbonyl]-benzonitrile]  15 nM
5. O=C(c1ccc2c(c1)CCNC2)N1CCN2CCCCC2C1 (stereo not drawn) [Example 10, (Octahydro-pyrido[1,2-a]pyrazin-2-yl)-(1,2,3,4-tetrahydro-isoquinolin-6-yl)-methanone]  16 nM
6. O=C(c1ccccc1)N1CCc2cc(C(=O)N3CCC[C@H]3CN3CCCC3)ccc2C1 [Example 48, (S)-Phenyl-[6-(2-pyrrolidin-1-ylmethyl-pyrrolidine-1-carbonyl)-3,4-dihydro-1H-isoquinolin-2-yl]-methanone]  18 nM
7. O=C(c1ccc2c(c1)CCN(Cc1ccc(Cl)c(Cl)c1)C2)N1CCN(C2CCC2)CC1 [Example 16, (4-Cyclobutyl-piperazin-1-yl)-[2-(3,4-dichloro-benzyl)-1,2,3,4-tetrahydro-isoquinolin-6-yl]-methanone]  18 nM
8. O=C(c1ccc2c(c1)CCN(C(=O)c1ccoc1)C2)N1CCN(C2CCC2)CC1 [Example 44, [6-(4-Cyclobutyl-piperazine-1-carbonyl)-3,4-dihydro-1H-isoquinolin-2-yl]-furan-3-yl-methanone]  19 nM
9. O=C(c1ccc2c(c1)CCN(C(=O)c1ccc(F)c(Cl)c1)C2)N1CCN(C2CCC2)CC1 [Example 128, [2-(3-Chloro-4-fluoro-benzoyl)-1,2,3,4-tetrahydro-isoquinolin-6-yl]-(4-cyclobutyl-piperazin-1-yl)-methanone]  19 nM
10. O=C(c1ccc2c(c1)CCN(Cc1ccc(C(F)(F)F)cc1)C2)N1CCN(C2CCC2)CC1 [Example 14, (4-Cyclobutyl-piperazin-1-yl)-[2-(4-trifluoromethyl-benzyl)-1,2,3,4-tetrahydro-isoquinolin-6-yl]-methanone]  20 nM
11. O=C(CC1CCCC1)N1CCc2cc(C(=O)N3CCN(C4CCC4)CC3)ccc2C1 [Example 43, 1-[6-(4-Cyclobutyl-piperazine-1-carbonyl)-3,4-dihydro-1H-isoquinolin-2-yl]-2-cyclopentyl-ethanone]  20 nM
12. O=C(c1ccc2c(c1)CCN(S(=O)(=O)c1ccccc1)C2)N1CCN(C2CCC2)CC1 [Example 103, (2-Benzenesulfonyl-1,2,3,4-tetrahydro-isoquinolin-6-yl)-(4-cyclobutyl-piperazin-1-yl)-methanone]  22 nM
13. N#Cc1cccc(C(=O)N2CCc3cc(C(=O)N4CCN5CCCCC5C4)ccc3C2)c1 (stereo not drawn) [Example 94, 3-[6-(Octahydro-pyrido[1,2-a]pyrazine-2-carbonyl)-3,4-dihydro-1H-isoquinoline-2-carbonyl]-benzonitrile]  22 nM
14. O=C(C1CCCCC1)N1CCc2cc(CN3CCCN(C4CCC4)CC3)ccc2C1 [Example 171, [6-(4-Cyclobutyl-[1,4]diazepan-1-ylmethyl)-3,4-dihydro-1H-isoquinolin-2-yl]-cyclohexyl-methanone]  23 nM
15. O=C(c1ccc2c(c1)CCN(C(=O)c1ccc(F)c(O)c1)C2)N1CCN(C2CCC2)CC1 [Example 124, (4-Cyclobutyl-piperazin-1-yl)-[2-(4-fluoro-3-hydroxy-benzoyl)-1,2,34-tetrahydro-isoquinolin-6-yl]-methanone]  24 nM
16. O=C(c1ccc2c(c1)CCN(C(=O)c1ccccc1F)C2)N1CCN2CCCCC2C1 (stereo not drawn) [Example 86, [2-(2-Fluoro-benzoyl)-1,2,3,4-tetrahydro-isoquinolin-6-yl]-(octahydro-pyrido[1,2-a]pyrazin-2-yl)-methanone]  27 nM
17. CC(C)N1CCN(C(=O)c2ccc3c(c2)CCN(Cc2ccccc2)C3)CC1 [Example 21, (2-Benzyl-1,2,34-tetrahydro-isoquinolin-6-yl)-(4-isopropyl-piperazin-1-yl)-methanone]  28 nM
18. CC(=O)N1CCc2cc(C(=O)N3CCN(C4CCC4)CC3)ccc2C1 [Example 30, 1-[6-(4-Cyclobutyl-piperazine-1-carbonyl)-3,4-dihydro-1H-isoquinolin-2-yl]-ethanone]  36 nM
19. O=C(c1ccc2c(c1)CCN(C(=O)c1ccc(Cl)cc1)C2)N1CCN(C2CCCC2)CC1 [Example 69, [2-(4-Chloro-benzoyl)-1,2,3,4-tetrahydro-isoquinolin-6-yl]-(4-cyclopentyl-piperazin-1-yl)-methanone]  91 nM
20. CC(C)(C)C(=O)N1CCc2cc(C(=O)N3CCN(C4CCCC4)CC3)ccc2C1 [Example 64, 1-[6-(4-Cyclopentyl-piperazine-1-carbonyl)-3,4-dihydro-1H-isoquinolin-2-yl]-2,2-dimethyl-propan-1-one]  100 nM
21. O=C(c1ccc2c(c1)CCN(C(=O)c1ccc(C3CCCCC3)cc1)C2)N1CCN(C2CCC2)CC1 [Example 132, (4-Cyclobutyl-piperazin-1-yl)-[2-(4-cyclohexyl-benzoyl)-1,2,3,4-tetrahydro-isoquinolin-6-yl]-methanone]  100 nM
22. O=C(c1ccc2c(c1)CCN(C(=O)c1cccc(F)c1)C2)N1CCN(C2CCCCC2)CC1 [Example 73, (4-Cyclohexyl-piperazin-1-yl)-[2-(3-fluoro-benzoyl)-1,2,3,4-tetrahydro-isoquinolin-6-yl]-methanone]  109 nM
23. O=C(c1ccc2c(c1)CCN(C(=O)c1ccccc1)C2)N1CCN(C2CCCCC2)CC1 [Example 85, (2-Benzoyl-1,2,3,4-tetrahydro-isoquinolin-6-yl)-(4-cyclohexyl-piperazin-1-yl)-methanone]  118 nM
24. O=C(C1CCCCC1)N1CCc2cc(CN3CCC[C@H]3CN3CCCC3)ccc2C1 [Example 169, Cyclohexyl-[6-(2-pyrrolidin-1-ylmethyl-pyrrolidin-1-ylmethyl)-3,4-dihydro-1H-isoquinolin-2-yl]-methanone]  269 nM
25. O=C(C1CCCCC1)N1CCc2cc(CN3CCN(C4CCC4)CC3)ccc2C1 [Example 170, [6-(4-Cyclobutyl-piperazin-1-ylmethyl)-3,4-dihydro-1H-isoquinolin-2-yl]-cyclohexyl-methanone]  860 nM
26. CC(C)N1CCc2cc(C(=O)N3CCCCC3)ccc2C1 [Example 173, (2-Isopropyl-1,2,3,4-tetrahydro-isoquinolin-6-yl)-piperidin-1-yl-methanone]  1800 nM
27. O=C(c1ccc2c(c1)CCN(Cc1ccccc1)C2)N1CCCCC1 [Example 12, (2-Benzyl-1,2,3,4-tetrahydro-isoquinolin-6-yl)-piperidin-1-yl-methanone]  7000 nM
